Holding throughout (assay): Nanosyn kinase profiling
Type in all cases: biochemical

For one experiment, the target named is T1, FLT4 (Homo sapiens, UniProt P35916).
T1 construct: purchased Nanosyn (enzymatic panel); SGC in-house recombinant human kinases (DSF panel); Invitrogen (ALK1-6)
The settings on record: read-out: Percentage inhibition; for inhibition at 0.1 µM: 0.1 µM inhibitor; for inhibition at 1 µM: 1 µM inhibitor. An outline of the steps:
(§1)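 Percent inhibition of each kinase was measured with the inhibitor at 0.1 µM and at 1 µM, as part of a 200-kinase human selectivity panel.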

A further experiment addresses T2, ARG (Homo sapiens, UniProt P42684).
T2 construct: purchased Nanosyn (enzymatic panel); SGC in-house recombinant human kinases (DSF panel); Invitrogen (ALK1-6)
The settings on record: for inhibition at 0.1 µM / inhibition at 1 µM: read-out: Percentage inhibition; for inhibition at 1 µM: 1 µM inhibitor. The procedure, abridged:
as §1

A further experiment addresses T3, BRK (Homo sapiens, UniProt Q13882).
T3 construct: purchased Nanosyn (enzymatic panel); SGC in-house recombinant human kinases (DSF panel); Invitrogen (ALK1-6)
The settings on record: read-out: Percentage inhibition; for inhibition at 0.1 µM: 0.1 µM inhibitor; for inhibition at 1 µM: 1 µM inhibitor. The procedure, abridged: as §1

The next experiment concerns the target T4, MAPKAPK3 (Homo sapiens, UniProt Q16644).
T4 construct: purchased Nanosyn (enzymatic panel); SGC in-house recombinant human kinases (DSF panel); Invitrogen (ALK1-6)
The settings on record: read-out: Percentage inhibition; for inhibition at 0.1 µM: 0.1 µM inhibitor; for inhibition at 1 µM: 1 µM inhibitor. An outline of the steps:
as §1

For the next experiment, the target named is T5, CDK5/p35 (Homo sapiens, UniProt Q00535).
T5 construct: purchased Nanosyn (enzymatic panel); SGC in-house recombinant human kinases (DSF panel); Invitrogen (ALK1-6)
T5 sequence (Q00535 whole entry): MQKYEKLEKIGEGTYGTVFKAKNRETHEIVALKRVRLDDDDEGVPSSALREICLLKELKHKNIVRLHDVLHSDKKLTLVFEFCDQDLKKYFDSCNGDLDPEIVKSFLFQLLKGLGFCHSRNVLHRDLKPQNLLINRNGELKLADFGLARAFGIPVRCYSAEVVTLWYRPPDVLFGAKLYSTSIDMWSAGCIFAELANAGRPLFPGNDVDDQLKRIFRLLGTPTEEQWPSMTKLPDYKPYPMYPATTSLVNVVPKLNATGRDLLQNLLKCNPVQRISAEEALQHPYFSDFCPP
T5 sequence (Q15078 whole entry partner): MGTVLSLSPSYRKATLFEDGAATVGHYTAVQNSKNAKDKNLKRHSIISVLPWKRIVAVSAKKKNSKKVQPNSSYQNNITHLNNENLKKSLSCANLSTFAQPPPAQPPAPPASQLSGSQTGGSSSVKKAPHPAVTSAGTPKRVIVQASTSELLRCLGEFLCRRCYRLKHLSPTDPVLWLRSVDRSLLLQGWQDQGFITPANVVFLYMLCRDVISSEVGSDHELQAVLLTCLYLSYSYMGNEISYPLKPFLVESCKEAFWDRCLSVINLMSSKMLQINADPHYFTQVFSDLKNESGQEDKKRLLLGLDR
The settings on record: read-out: Percentage inhibition; for inhibition at 0.1 µM: 0.1 µM inhibitor; for inhibition at 1 µM: 1 µM inhibitor. The procedure, abridged: as §1

A further experiment addresses T6, FGFR4 (Homo sapiens, UniProt P22455).
T6 construct: purchased Nanosyn (enzymatic panel); SGC in-house recombinant human kinases (DSF panel); Invitrogen (ALK1-6)
Conditions: read-out: Percentage inhibition; for inhibition at 0.1 µM: 0.1 µM inhibitor; for inhibition at 1 µM: 1 µM inhibitor. The procedure, abridged: as §1

For a further experiment, the target named is T7, EPHB3 (Homo sapiens, UniProt P54753).
T7 construct: purchased Nanosyn (enzymatic panel); SGC in-house recombinant human kinases (DSF panel); Invitrogen (ALK1-6)
T7 sequence (P54753 34-998): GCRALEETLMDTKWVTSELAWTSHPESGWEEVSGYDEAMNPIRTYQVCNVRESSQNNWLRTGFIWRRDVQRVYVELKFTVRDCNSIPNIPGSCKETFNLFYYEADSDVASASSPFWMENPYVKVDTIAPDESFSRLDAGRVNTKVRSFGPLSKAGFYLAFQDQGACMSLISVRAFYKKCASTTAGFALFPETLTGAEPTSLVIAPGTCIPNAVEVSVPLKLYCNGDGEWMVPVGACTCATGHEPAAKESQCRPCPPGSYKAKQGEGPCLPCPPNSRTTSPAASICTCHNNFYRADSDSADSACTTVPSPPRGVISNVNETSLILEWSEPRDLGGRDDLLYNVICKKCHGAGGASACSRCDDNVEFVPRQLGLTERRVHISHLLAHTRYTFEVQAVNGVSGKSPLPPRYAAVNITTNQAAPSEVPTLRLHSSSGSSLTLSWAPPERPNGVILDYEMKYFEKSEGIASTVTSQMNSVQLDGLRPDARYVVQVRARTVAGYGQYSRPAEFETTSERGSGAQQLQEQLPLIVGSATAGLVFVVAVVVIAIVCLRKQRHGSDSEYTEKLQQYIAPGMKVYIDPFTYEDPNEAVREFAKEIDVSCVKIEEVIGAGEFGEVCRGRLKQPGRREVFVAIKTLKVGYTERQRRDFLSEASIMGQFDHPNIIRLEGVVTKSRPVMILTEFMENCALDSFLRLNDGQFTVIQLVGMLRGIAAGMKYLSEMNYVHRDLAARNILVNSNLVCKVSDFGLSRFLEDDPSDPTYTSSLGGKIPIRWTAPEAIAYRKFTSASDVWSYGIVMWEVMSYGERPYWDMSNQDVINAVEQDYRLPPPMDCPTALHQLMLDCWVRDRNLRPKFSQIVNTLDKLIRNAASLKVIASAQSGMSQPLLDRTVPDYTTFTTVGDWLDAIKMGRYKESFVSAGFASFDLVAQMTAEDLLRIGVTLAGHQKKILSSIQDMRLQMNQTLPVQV
Conditions: read-out: Percentage inhibition; for inhibition at 0.1 µM: 0.1 µM inhibitor; for inhibition at 1 µM: 1 µM inhibitor. An outline of the steps: as §1

The next experiment addresses T8, PRKD1 (Homo sapiens, UniProt Q15139).
T8 construct: purchased Nanosyn (enzymatic panel); SGC in-house recombinant human kinases (DSF panel); Invitrogen (ALK1-6)
T8 sequence (Q15139 1-912): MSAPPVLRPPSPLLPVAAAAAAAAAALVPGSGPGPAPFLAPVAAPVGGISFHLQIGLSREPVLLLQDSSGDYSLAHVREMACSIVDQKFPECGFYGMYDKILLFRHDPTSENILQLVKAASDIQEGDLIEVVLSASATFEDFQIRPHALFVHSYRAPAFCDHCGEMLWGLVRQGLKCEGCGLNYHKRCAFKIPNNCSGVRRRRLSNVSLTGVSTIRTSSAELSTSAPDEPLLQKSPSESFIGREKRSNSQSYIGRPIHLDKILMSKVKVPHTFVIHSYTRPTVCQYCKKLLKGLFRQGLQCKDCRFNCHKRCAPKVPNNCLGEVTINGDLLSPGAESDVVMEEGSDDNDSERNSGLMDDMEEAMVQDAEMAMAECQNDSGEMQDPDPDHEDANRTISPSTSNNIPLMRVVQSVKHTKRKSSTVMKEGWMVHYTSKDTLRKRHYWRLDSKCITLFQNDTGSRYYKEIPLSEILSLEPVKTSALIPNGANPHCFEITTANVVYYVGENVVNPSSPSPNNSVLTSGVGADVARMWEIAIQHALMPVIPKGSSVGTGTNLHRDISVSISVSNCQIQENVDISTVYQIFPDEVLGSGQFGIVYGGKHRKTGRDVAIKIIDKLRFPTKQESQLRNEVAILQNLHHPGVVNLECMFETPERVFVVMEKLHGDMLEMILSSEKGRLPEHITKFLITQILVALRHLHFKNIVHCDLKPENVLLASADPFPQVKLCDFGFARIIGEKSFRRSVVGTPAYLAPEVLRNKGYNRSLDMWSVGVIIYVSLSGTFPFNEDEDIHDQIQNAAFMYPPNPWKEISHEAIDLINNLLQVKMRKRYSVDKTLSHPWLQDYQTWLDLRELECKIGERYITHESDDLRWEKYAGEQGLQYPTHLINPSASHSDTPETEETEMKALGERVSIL
The settings on record: read-out: Percentage inhibition; for inhibition at 0.1 µM: 0.1 µM inhibitor; for inhibition at 1 µM: 1 µM inhibitor. An outline of the steps:
as §1

A further experiment addresses T9, EPHA2 (Homo sapiens, UniProt P29317).
T9 construct: purchased Nanosyn (enzymatic panel); SGC in-house recombinant human kinases (DSF panel); Invitrogen (ALK1-6)
Conditions: read-out: Percentage inhibition; for inhibition at 0.1 µM: 0.1 µM inhibitor; for inhibition at 1 µM: 1 µM inhibitor. The procedure, abridged:
as §1

Broadly, the inhibition is the drop in the measured response relative to a control, in per cent.

T9 sequence (P29317 24-976): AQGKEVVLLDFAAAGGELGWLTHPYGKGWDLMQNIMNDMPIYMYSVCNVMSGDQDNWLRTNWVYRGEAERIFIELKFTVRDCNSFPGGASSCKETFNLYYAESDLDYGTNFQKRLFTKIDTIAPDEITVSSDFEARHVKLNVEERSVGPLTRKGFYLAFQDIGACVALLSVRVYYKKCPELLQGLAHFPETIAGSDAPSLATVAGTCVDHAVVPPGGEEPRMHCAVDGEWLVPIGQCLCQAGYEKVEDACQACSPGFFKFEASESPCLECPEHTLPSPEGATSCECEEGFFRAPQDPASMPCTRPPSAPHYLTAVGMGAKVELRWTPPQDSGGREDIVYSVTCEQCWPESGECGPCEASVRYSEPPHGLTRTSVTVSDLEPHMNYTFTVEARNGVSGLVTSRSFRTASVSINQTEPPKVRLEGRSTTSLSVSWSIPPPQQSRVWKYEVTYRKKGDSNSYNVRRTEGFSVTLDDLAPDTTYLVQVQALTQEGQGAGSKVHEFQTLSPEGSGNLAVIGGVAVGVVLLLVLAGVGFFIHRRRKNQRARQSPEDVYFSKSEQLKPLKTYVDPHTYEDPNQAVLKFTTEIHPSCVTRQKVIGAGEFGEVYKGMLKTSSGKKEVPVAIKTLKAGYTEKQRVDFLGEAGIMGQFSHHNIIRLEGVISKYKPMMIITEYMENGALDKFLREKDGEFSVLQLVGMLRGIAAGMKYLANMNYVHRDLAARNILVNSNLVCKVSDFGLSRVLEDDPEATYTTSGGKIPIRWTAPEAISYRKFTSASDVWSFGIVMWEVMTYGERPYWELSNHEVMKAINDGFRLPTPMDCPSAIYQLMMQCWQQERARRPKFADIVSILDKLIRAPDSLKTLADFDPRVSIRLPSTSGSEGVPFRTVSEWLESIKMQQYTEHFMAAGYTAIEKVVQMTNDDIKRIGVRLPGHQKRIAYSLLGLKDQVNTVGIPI
T4 sequence (Q16644 whole entry): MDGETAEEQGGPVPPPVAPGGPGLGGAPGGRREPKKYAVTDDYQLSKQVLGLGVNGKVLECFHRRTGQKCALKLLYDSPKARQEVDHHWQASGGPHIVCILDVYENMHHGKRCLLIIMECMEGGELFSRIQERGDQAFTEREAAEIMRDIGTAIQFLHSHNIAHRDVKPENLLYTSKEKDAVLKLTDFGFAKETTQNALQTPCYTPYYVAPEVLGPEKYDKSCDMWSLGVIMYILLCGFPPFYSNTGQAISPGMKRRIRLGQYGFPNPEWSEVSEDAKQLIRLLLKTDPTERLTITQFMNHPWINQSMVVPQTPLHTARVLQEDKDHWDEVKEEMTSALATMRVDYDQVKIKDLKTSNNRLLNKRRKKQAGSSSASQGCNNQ
T2 sequence (P42684 whole entry): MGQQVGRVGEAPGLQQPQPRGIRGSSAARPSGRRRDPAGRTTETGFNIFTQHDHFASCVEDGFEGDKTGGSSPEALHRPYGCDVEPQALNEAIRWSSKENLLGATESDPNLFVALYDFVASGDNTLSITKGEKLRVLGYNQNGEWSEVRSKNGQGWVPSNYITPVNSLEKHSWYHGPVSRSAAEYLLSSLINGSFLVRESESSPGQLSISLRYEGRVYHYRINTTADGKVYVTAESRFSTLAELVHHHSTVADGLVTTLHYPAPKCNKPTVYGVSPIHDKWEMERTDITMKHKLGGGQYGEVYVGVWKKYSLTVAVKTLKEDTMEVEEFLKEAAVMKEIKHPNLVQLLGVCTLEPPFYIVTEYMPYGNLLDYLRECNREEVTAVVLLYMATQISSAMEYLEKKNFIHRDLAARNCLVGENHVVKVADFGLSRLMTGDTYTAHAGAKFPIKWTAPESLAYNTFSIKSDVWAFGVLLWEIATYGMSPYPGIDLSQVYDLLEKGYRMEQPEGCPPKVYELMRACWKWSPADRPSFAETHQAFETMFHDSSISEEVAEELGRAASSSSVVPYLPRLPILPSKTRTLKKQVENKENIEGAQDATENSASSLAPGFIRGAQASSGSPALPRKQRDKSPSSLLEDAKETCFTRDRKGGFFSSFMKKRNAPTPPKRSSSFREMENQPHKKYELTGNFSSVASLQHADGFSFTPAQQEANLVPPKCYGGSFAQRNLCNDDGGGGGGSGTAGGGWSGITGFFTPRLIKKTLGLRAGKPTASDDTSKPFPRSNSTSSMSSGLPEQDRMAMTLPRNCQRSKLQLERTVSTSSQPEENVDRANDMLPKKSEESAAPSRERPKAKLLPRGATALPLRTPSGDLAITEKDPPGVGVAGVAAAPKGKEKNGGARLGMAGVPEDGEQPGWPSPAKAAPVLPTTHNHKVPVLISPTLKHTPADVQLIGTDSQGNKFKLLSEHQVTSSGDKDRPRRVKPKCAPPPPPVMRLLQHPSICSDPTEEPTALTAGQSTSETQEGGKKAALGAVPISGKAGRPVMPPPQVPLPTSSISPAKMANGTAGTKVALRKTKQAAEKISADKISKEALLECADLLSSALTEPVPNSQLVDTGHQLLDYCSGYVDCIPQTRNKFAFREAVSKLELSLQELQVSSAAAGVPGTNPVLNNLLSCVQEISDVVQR
T1 sequence (P35916 25-1363): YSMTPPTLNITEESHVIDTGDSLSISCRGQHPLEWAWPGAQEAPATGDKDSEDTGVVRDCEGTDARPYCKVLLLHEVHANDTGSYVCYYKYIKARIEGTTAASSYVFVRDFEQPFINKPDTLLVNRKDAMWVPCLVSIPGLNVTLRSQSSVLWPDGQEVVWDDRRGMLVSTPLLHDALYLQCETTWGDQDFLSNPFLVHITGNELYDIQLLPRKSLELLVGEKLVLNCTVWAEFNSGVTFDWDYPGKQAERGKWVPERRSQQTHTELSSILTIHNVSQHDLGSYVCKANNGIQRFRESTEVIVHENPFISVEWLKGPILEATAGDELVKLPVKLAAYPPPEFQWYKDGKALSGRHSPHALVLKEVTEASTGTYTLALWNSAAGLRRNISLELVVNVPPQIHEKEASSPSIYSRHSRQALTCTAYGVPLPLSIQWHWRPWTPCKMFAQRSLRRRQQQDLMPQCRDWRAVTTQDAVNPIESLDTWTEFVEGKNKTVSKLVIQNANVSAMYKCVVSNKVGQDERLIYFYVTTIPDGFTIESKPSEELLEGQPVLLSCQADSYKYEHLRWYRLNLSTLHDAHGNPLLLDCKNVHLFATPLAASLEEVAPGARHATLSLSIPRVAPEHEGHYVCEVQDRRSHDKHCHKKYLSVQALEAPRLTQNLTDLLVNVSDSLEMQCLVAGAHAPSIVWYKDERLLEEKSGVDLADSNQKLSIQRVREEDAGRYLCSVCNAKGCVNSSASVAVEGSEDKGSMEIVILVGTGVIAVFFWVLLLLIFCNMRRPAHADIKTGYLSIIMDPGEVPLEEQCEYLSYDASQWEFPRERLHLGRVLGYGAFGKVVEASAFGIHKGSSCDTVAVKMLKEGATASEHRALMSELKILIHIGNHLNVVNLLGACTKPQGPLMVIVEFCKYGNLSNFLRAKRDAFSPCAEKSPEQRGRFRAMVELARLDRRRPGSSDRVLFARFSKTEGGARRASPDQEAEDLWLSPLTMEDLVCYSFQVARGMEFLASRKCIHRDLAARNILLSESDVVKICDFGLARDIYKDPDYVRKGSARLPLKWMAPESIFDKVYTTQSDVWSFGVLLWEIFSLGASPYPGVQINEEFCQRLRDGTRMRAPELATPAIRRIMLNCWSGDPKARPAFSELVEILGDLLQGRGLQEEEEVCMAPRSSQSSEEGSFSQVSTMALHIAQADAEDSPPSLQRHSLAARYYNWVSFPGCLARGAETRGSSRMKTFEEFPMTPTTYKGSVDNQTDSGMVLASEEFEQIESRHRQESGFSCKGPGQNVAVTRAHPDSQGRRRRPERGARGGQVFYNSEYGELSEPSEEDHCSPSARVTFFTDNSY
T3 sequence (Q13882 whole entry): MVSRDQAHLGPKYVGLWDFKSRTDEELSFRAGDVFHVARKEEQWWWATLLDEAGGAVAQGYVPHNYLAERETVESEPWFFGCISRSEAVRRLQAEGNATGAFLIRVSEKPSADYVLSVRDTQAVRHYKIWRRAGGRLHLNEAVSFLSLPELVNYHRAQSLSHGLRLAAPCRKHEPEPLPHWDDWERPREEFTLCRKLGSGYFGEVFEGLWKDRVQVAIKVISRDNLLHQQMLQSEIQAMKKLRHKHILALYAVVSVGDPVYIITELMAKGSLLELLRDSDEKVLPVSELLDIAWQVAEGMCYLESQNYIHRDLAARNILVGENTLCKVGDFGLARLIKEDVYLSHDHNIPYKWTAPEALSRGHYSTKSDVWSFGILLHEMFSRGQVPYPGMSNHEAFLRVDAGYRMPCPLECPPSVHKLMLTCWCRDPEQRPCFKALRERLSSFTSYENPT

On to `c1ccc2c(-c3cnn4cc(-c5ccc(N6CCNCC6)cc5)cnc34)ccnc2c1` [LDN-193189], for which the inhibition at 0.1 µM was 3.4% on FLT4; 33% on ARG (0.1 µM inhibitor); 13% on BRK; 1.6% on MAPKAPK3; 1.4% on CDK5/p35; 0.3% on FGFR4. Also, the results for the inhibition at 0.1 µM on EPHB3, on PRKD1 and at EPHA2 were 5.6%, 4.6% and -2%, respectively. The inhibition at 1 µM at FLT4 turned out to be 13%; at ARG, 73%; on BRK, 57%; on MAPKAPK3, 0.5%; at CDK5/p35, 8.5%; at FGFR4, 2.4%. Moreover, the inhibition at 1 µM on EPHB3 was 4.3%; at PRKD1 it was 15%; at EPHA2 it was -3%.

In the case of `COc1cc(-c2cc(-c3cccc(O)c3)cnc2N)cc(OC)c1OC` [K02288, 3-[6-amino-5-(3,4,5-trimethoxy-phenyl)-pyridin-3-yl]-phenol], the inhibition at 0.1 µM on FLT4 was 0.6%; at ARG (0.1 µM inhibitor), 66%; at BRK it was 13%; on MAPKAPK3 it was -1%; on CDK5/p35, 0.3%; at FGFR4, 4%. Besides, the inhibition at 0.1 µM at EPHB3 is -2%; on PRKD1, 0%; at EPHA2, -2%. The inhibition at 1 µM on FLT4 is 1.4%; on ARG, 85%; on BRK, 66%; on MAPKAPK3, -2%; at CDK5/p35 it was 1.9%; at FGFR4 it was 0%. In addition, the inhibition at 1 µM at EPHB3 is -1%; on PRKD1 it was 6.1%; at EPHA2, 3%. On ARG (0.1 µM inhibitor, 0.1 µM), this molecule registered a Percentage inhibition of more than 50%.

For the origin of these results see article PMC3639963, “A New Class of Small Molecule Inhibitor of BMP Signaling” (PLoS ONE, 2013).
